Measurements from article PMC3395780 (Journal of Medicinal Chemistry, 2012).
Where two headings read alike, the source gives them in different places.

Tests used:
Mtb H37Rv [1] = test: TB MIC – SRI, resazurin-based microplate assay; assay type: cell-based, Mycobacterium tuberculosis; settings: lowest concentration inhibiting ≥90% growth
Mtb H37Rv [2] = test: TB MIC – ITR; assay type: cell-based, Mycobacterium tuberculosis; settings: ITR laboratory
NRP Mtb H37Rv cells = test: Low-oxygen recovery assay; assay type: cell-based, Mycobacterium tuberculosis; settings: non-replicating Mtb, anaerobic 10 d + 28-h recovery; ~90% inhibition
[3] = system: Vero cells (Vero ATCC CCL-81); test: Cytotoxicity against Vero cells; settings: 72 h incubation
M. smegmatis = test: Antimicrobial spectrum of activity; assay type: cell-based; settings: relative to activity against Mtb; SI Table 1
M. abscessus = test: Antimicrobial spectrum of activity; assay type: cell-based; settings: SI Table 1
[4] = Plasma pharmacokinetics after oral administration to female mice; assay type: in vivo, mouse
[5] = system: Salmonella typhimurium strain TA100; test: Ames assay, plate incorporation method; assay type: cell-based
[6] = system: L5178Y mouse lymphoma cells; test: Mouse lymphoma cell tk+/−→tk−/− gene mutation; assay type: cell-based; settings: for Mutation frequency response in MOLY assay: in the presence or absence of metabolic activation (S9), non-cytotoxic dose levels
[7] = system: Salmonella typhimurium strain TA98; test: Ames assay, plate incorporation method; assay type: cell-based
[8] = system: L5178Y mouse lymphoma cells; settings: no reference printed at b52; cited from earlier work
[9] = in the presence and absence of metabolic activation (10% rat-liver S9)

3-((1-methoxybutan-2-yl)amino)benzo[e][1,2,4]triazine 1,4-dioxide [Compound 8i]
TB MIC – SRI (Mtb H37Rv [1]): 10.0 µg/mL | TB MIC – ITR (Mtb H37Rv [2]): 6.6 µg/mL | LORA MIC – ITR (NRP Mtb H37Rv cells): 4.9 µg/mL | Vero Tox CC50 [3]: >50 µg/mL

7-chloro-3-((1-methoxybutan-2-yl)amino)benzo[e][1,2,4]triazine 1,4-dioxide [Compound 15bi]
TB MIC – SRI (Mtb H37Rv [1]): 1.2 µg/mL

7-fluoro-3-((1-methoxybutan-2-yl)amino)benzo[e][1,2,4]triazine 1,4-dioxide [Compound 15ai]
TB MIC – SRI (Mtb H37Rv [1]): 5.0 µg/mL | TB MIC – ITR (Mtb H37Rv [2]): 2.0 µg/mL | LORA MIC – ITR (NRP Mtb H37Rv cells): 1.9 µg/mL | Vero Tox CC50 [3]: 6.3 µg/mL

CCNc1n[n+]([O-])c2ccccc2[n+]1[O-] [Compound 8a, 3-(ethylamino)benzo[e][1,2,4]triazine 1,4-dioxide]
Antimicrobial activity against M. smegmatis (M. smegmatis): weaker activity | Antimicrobial activity against M. abscessus (M. abscessus): resistant | Plasma drug concentration at the 24 hr time point ([4]; mouse, in vivo, po, 100 mg/kg): lower than the limit of quantitation

CCNc1n[n+]([O-])c2cc3c(cc2[n+]1[O-])CCC3 [Compound 15fa, 3-(ethylamino)-7,8-dihydro-6H-indeno[5,6-e][1,2,4]triazine 1,4-dioxide]
Number of revertant colonies, strain TA100 [5]: dose-related increases in the number of revertant colonies | Mutagenic potential, +S9, 4-Hr Exposure ([6]; dose 10 μg/mL): Positive | Mutagenic potential, +S9, 24-Hr Exposure ([6]; dose 10 μg/mL): Positive | Mutagenic potential, −S9, 4-Hr Exposure ([6]; dose 10 μg/mL): Positive | Mutagenic potential, +S9, 4-Hr Exposure ([6]; dose 25 μg/mL): Positive | Mutagenic potential, +S9, 24-Hr Exposure ([6]; dose 25 μg/mL): Positive | Mutagenic potential, −S9, 4-Hr Exposure ([6]; dose 25 μg/mL): Positive | Mutagenic potential, +S9, 4-Hr Exposure ([6]; dose 50 μg/mL): Positive | Mutagenic potential, +S9, 24-Hr Exposure ([6]; dose 50 μg/mL): Positive | Mutagenic potential, −S9, 4-Hr Exposure ([6]; dose 50 μg/mL): Positive | Mutagenic potential, +S9, 4-Hr Exposure ([6]; dose 100 μg/mL): Positive | Mutagenic potential, +S9, 24-Hr Exposure ([6]; dose 100 μg/mL): Positive | Mutagenic potential, −S9, 4-Hr Exposure ([6]; dose 100 μg/mL): Positive | Mutation frequency response in MOLY assay [6]: significant increase in mutation frequency | Number of revertant colonies, strain TA98 [7]: dose-related increases in the number of revertant colonies

[O-][n+]1nc(N2CCCC2)[n+]([O-])c2cc3c(cc21)CCC3 [Compound 20q, 3-(pyrrolidin-1-yl)-7,8-dihydro-6H-indeno[5,6-e][1,2,4]triazine 1,4-dioxide]
Number of revertant colonies, strain TA100 [5, 9]: dose-related increases in the number of revertant colonies | Mutagenic activity in MOLY assay ([6]; at concentrations up to 100 μg/mL): no mutagenic activity | Mutagenic potential, +S9, 4-Hr Exposure ([6]; dose 10 μg/mL): Negative | Mutagenic potential, −S9, 4-Hr Exposure ([6]; dose 10 μg/mL): Negative | Mutagenic potential, −S9, 24-Hr Exposure ([6]; dose 10 μg/mL): Negative | Mutagenic potential, +S9, 4-Hr Exposure ([6]; dose 25 μg/mL): Negative ^a | Mutagenic potential, +S9, 24-Hr Exposure ([6]; dose 25 μg/mL): Negative | Mutagenic potential, −S9, 4-Hr Exposure ([6]; dose 25 μg/mL): Negative | Mutagenic potential, −S9, 24-Hr Exposure ([6]; dose 25 μg/mL): Negative | Mutagenic potential, +S9, 4-Hr Exposure ([6]; dose 50 μg/mL): Negative | Mutagenic potential, +S9, 24-Hr Exposure ([6]; dose 50 μg/mL): Negative | Mutagenic potential, −S9, 4-Hr Exposure ([6]; dose 50 μg/mL): Negative | Mutagenic potential, −S9, 24-Hr Exposure ([6]; dose 50 μg/mL): Negative | Mutagenic potential, +S9, 4-Hr Exposure ([6]; dose 100 μg/mL): Negative | Mutagenic potential, +S9, 24-Hr Exposure ([6]; dose 100 μg/mL): Negative | Mutagenic potential, −S9, 4-Hr Exposure ([6]; dose 100 μg/mL): Negative | Mutagenic potential, −S9, 24-Hr Exposure ([6]; dose 100 μg/mL): Negative | Mutation frequency response in MOLY assay [6]: negative response | Antimicrobial activity against M. smegmatis (M. smegmatis): weaker activity | Number of revertant colonies, strain TA98 [7, 9]: dose-related increases in the number of revertant colonies | Antimicrobial activity against M. abscessus (M. abscessus): resistant | Plasma drug concentration at the 24 hr time point ([4]; female mice, 100 mg/kg po, n = 3 per time point): lower than the limit of quantitation

Nc1n[n+]([O-])c2ccccc2[n+]1[O-] [TPZ, tirapazamine]
Mutagenicity in MOLY assay [8]: mutagenic
